Values quoted from earlier work, collected in US10781471B2, “NRAS related cancer therapy” (Ruijin Hospital Affiliated to Shanghai Jiao Tong University …, priority 2014, dated 2020).

Test system: acute lymphoblastic leukemia (ALL)
Settings: methotrexate 3.3 mg/m^2 in combination with 60 mg/m^2 of prednisone, given daily; induction in ALL patients

Structure (SMILES): CN(Cc1cnc2nc(N)nc(N)c2n1)c1ccc(C(=O)N[C@@H](CCC(=O)O)C(=O)O)cc1 [methotrexate, Methotrexate]
- period within which remission was usually produced: 4 to 6 weeks
- remissions, share of patients treated: 50%
